The source of these data is ChEMBL document CHEMBL1201862, “PubChem BioAssay data set” (2004).

Active and inactive are the calls of the source.

The target of assay [1] is Ras and Rab interactor 1/Tyrosine-protein kinase ABL1 (Homo sapiens, UniProt P00519+Q13671). It counts as functional.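 Also: biochemical TR-FRET dose-response test measuring inhibition of binding between Rin1 and Abl proteins.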
Assay [2] concerns the target T1, Mitochondrial peptide methionine sulfoxide reductase (Bos taurus, UniProt P54149).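 Also: absorbance read-out, biochemical high-throughput dose-response screen for MsrA inhibitors, confirmatory; recombinant bovine MsrA coupled to E. coli TrxB with NADPH and selenocystamine; potency is for inhibitors of MsrA activity on DMSO substrate.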
T1 sequence (P54149 whole entry): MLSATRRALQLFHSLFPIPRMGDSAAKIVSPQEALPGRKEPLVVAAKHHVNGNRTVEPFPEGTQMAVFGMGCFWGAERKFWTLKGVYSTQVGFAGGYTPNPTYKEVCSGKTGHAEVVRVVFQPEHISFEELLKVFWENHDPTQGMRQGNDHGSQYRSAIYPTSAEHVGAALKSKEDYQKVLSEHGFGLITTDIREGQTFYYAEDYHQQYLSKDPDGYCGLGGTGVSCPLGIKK
The format is functional.

The target of a further assay is Cytochrome P450 2C19 (Homo sapiens, UniProt P33261). In words: Cytochrome panel assay with activity outcomes. Panel member name: p450-cyp2c19 Compounds with AC50 equal or less than 10 uM are considered active. It counts as functional. The settings on record: read-out: AC50.
Assay [3] concerns the target T2, Carboxy-terminal domain RNA polymerase II polypeptide A small phosphatase 1 (Homo sapiens, UniProt Q9GZU7).
T2 sequence (Q9GZU7 whole entry): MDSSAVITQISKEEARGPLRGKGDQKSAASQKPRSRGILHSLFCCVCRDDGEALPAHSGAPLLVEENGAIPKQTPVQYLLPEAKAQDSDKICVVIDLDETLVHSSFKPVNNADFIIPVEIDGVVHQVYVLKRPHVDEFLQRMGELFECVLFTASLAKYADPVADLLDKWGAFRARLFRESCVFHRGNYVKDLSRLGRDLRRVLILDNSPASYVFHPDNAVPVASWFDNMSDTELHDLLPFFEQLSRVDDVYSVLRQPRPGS
The assay can be described thus: CTDSP1 inhibitors, concentration-response, biochemical, absorbance readout, ultra-high-throughput screen actives (AID 540297). It counts as functional.

Assay [4] concerns the target T3, Low molecular weight phosphotyrosine protein phosphatase (Homo sapiens, UniProt P24666).
T3 sequence (P24666 whole entry): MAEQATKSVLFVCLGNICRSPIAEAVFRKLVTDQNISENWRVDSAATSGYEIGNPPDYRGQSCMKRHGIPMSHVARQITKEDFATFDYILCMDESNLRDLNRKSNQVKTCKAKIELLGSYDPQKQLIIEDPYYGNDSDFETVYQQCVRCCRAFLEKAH
The format is functional. The settings on record: read-out: IC50_Mean.

Assay [5] addresses T3, Low molecular weight phosphotyrosine protein phosphatase. The format is functional. The conditions noted are these: read-out: IC50_Mean. The source holds these as a separate data set.
Assay [6] has as its target T4, Tyrosine-protein phosphatase non-receptor type 22 (Homo sapiens, UniProt Q9Y2R2).
T4 sequence (Q9Y2R2 whole entry): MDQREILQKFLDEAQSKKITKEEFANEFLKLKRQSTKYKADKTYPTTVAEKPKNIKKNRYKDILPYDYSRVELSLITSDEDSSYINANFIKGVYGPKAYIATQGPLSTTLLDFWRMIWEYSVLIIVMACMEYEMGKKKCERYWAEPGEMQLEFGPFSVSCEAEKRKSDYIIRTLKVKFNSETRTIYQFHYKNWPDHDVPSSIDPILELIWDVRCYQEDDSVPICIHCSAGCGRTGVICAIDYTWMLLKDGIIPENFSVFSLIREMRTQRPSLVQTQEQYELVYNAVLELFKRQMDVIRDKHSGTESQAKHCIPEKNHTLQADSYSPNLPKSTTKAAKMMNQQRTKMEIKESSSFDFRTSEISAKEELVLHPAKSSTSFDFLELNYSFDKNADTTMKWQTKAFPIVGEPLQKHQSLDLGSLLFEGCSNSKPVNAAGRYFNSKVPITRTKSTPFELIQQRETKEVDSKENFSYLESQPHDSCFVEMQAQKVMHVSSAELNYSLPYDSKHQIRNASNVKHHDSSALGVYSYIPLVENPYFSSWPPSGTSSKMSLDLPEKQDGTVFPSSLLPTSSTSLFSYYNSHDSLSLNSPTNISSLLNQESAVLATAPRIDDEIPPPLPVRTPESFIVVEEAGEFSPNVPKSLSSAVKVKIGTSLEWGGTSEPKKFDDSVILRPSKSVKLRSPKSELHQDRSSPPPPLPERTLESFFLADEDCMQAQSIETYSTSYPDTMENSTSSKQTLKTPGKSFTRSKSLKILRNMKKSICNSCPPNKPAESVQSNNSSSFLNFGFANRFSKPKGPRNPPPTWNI
The assay can be described thus: PTPN22 enzyme inhibitors – biochemical, fluorescence, LYP catalytic domain, selectivity assay for LMPTP inhibitor project, dose response (AID 652006). The format is functional. The conditions noted are these: read-out: IC50_Mean.

A further assay addresses Cytochrome P450 2C9 (Homo sapiens, UniProt P11712).
For assay [7], the target named is T5, ATP-dependent translocase ABCB1 (Homo sapiens, UniProt P08183). The assay can be described thus: inhibition of BCRP-mediated JC-1 efflux – Ig-MXP3 cells, flow cytometry, set 2, dose response (AID 504566).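 Also: flow cytometry median green fluorescence of retained JC-1 dye; potency of efflux pump inhibition measured as rising substrate retention.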 The conditions noted are these: read-out: EC50_MICROM_. The format is functional. On the technique in general: Flow cytometry measures light scatter and fluorescence of single cells or particles in a stream.

The target in assay [8] is T5, ATP-dependent translocase ABCB1. In words: P-gp JC-1 efflux blockade concentration-response – Jurkat-DNR cells, flow cytometry, set 2, dose response (AID 504569).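 Also: potency of pump inhibitors that raise cellular JC-1 green fluorescence up to the nicardipine level.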 The settings on record: read-out: EC50_MICROM_. It counts as functional.
For assay [9], the target named is Potassium voltage-gated channel subfamily KQT member 2 (Rattus norvegicus, UniProt O88943). In words: blockers of KCNQ2 channel current – cell-based, automated electrophysiology, set II, rat KCNQ2, dose response (AID 588637). The format is functional.
The target in assay [10] is T6, DNA dC->dU-editing enzyme APOBEC-3A (Homo sapiens, UniProt P31941). The assay can be described thus: Dose Response confirmation of small molecule APOBEC3A DNA Deaminase Inhibitors via a fluorescence-based single-stranded DNA deaminase assay. [Related pubchem assays (depositor defined):AID493011, AID493024]. The format is functional.
In assay [11] the target is T7, DNA dC->dU-editing enzyme APOBEC-3G (Homo sapiens, UniProt Q9HC16). The format is functional.
Assay [12] deals with T6, DNA dC->dU-editing enzyme APOBEC-3A. In words: SAR analysis of small molecule inhibitors of APOBEC3A DNA Deaminase via a fluorescence-based single-stranded DNA deaminase assay - Set 2. The settings on record: read-out: IC50_Mean. It counts as functional.
The target in assay [13] is T7, DNA dC->dU-editing enzyme APOBEC-3G. In words: SAR analysis of small molecule inhibitors of APOBEC3G DNA Deaminase via a fluorescence-based single-stranded DNA deaminase assay - Set 2. The format is functional. The settings on record: read-out: IC50_Mean.
Assay [14] has the same target. The assay can be described thus: inhibition of APOBEC3G ssDNA deamination – biochemical, fluorescence, single-stranded DNA substrate, SAR follow-up (AID 602136). It counts as functional. The settings on record: read-out: IC50_Mean.
The target of assay [15] is T6, DNA dC->dU-editing enzyme APOBEC-3A. In words: SAR analysis of small molecule inhibitors of APOBEC3A DNA Deaminase via a fluorescence-based single-stranded DNA deaminase assay. It counts as functional. The conditions noted are these: read-out: IC50_Mean.
For a further assay, the target named is Melanocortin receptor 4 (Homo sapiens, UniProt P32245). The assay can be described thus: inhibitors of MC4R cAMP signaling – cell-based, TR-FRET, biased antagonists, dose response (AID 602298).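 Also: antagonist potency against agonist-stimulated cAMP production.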 It counts as functional. For orientation: Time-resolved FRET reads energy transfer from a long-lived donor to a nearby acceptor.
Assay [16] in a line: cAMP pathway inhibition in counterscreen cell line – TR-FRET cAMP detection, counter-screen for MC4R biased antagonist project, dose response (AID 602305).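 Also: U2OS cells stimulated with forskolin near its EC80 as the cAMP inducer; potency is for inhibition of forskolin-stimulated cAMP signaling.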 It counts as functional, cell-based.

T6 sequence (P31941 whole entry): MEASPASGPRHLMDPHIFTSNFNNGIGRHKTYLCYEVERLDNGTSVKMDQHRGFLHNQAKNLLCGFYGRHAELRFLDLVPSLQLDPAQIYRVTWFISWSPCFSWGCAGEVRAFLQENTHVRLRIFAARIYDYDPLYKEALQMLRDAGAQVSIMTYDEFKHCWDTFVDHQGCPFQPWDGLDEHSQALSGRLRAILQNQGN
T7 sequence (Q9HC16 whole entry): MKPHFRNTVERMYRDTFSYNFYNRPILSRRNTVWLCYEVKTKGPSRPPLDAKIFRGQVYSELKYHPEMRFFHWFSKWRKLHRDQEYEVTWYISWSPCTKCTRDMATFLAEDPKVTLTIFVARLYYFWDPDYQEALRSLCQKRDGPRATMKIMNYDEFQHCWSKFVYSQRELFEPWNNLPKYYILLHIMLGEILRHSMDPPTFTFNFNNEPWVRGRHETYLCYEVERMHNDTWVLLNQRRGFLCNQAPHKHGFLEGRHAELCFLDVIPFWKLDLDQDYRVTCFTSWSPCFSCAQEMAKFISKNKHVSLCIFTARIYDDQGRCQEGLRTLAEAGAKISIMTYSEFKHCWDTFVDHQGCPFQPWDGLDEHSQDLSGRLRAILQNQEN
T5 sequence (P08183 whole entry): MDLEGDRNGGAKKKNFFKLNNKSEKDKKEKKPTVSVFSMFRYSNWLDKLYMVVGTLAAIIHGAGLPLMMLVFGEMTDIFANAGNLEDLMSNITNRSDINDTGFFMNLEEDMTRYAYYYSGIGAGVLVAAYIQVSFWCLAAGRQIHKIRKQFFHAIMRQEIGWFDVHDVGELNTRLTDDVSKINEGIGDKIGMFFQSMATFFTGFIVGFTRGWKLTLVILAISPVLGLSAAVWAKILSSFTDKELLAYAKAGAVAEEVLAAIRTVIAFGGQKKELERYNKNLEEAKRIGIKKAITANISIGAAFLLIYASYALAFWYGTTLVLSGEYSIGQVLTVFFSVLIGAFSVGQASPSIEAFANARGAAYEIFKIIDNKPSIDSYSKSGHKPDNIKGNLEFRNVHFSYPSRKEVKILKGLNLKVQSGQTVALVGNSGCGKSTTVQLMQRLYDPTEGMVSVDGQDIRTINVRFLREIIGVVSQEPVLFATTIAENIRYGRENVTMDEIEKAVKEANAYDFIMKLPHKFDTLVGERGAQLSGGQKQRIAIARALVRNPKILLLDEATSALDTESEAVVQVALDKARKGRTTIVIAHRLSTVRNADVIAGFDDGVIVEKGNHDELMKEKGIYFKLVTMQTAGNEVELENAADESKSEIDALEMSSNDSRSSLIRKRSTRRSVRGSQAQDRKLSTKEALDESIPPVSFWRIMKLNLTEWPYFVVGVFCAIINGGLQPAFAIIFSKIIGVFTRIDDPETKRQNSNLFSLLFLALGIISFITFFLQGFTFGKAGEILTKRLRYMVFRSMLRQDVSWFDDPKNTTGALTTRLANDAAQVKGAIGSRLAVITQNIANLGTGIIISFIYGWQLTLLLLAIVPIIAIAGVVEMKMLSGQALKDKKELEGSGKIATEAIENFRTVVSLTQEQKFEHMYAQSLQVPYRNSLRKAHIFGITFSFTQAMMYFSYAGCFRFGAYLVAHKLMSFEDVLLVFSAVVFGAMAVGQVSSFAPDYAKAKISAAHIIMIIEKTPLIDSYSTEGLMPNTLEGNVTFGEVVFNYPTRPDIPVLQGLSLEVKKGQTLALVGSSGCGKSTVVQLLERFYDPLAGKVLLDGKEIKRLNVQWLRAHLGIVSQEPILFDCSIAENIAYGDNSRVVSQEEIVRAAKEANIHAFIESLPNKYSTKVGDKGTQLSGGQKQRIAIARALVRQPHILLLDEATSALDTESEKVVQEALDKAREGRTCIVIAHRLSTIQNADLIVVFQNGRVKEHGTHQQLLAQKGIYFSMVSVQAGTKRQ
Sequence of Cytochrome P450 2C9 (P11712 whole entry): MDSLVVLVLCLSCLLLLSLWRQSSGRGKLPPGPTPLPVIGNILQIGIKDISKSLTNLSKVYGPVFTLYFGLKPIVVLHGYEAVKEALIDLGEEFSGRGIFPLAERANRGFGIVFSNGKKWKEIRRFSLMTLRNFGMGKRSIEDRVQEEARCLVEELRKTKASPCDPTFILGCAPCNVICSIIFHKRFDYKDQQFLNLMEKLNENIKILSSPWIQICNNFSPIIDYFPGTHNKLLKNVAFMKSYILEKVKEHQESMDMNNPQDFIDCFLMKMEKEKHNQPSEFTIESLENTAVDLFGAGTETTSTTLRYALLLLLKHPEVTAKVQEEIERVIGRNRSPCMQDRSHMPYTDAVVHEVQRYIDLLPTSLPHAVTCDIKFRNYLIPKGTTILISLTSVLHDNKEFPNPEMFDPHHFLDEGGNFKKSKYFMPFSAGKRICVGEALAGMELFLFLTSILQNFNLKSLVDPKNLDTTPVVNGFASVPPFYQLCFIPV
Sequence of Melanocortin receptor 4 (P32245 whole entry): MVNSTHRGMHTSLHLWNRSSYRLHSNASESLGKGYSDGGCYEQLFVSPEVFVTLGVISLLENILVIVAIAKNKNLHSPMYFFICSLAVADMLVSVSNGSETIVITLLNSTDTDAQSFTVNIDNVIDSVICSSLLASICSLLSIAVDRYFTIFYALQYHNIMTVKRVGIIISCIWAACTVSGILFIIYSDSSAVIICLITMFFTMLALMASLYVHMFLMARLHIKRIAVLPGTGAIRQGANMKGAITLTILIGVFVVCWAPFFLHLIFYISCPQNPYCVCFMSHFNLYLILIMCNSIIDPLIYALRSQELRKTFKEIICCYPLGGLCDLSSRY
Sequence of Potassium voltage-gated channel subfamily KQT member 2 (O88943 whole entry): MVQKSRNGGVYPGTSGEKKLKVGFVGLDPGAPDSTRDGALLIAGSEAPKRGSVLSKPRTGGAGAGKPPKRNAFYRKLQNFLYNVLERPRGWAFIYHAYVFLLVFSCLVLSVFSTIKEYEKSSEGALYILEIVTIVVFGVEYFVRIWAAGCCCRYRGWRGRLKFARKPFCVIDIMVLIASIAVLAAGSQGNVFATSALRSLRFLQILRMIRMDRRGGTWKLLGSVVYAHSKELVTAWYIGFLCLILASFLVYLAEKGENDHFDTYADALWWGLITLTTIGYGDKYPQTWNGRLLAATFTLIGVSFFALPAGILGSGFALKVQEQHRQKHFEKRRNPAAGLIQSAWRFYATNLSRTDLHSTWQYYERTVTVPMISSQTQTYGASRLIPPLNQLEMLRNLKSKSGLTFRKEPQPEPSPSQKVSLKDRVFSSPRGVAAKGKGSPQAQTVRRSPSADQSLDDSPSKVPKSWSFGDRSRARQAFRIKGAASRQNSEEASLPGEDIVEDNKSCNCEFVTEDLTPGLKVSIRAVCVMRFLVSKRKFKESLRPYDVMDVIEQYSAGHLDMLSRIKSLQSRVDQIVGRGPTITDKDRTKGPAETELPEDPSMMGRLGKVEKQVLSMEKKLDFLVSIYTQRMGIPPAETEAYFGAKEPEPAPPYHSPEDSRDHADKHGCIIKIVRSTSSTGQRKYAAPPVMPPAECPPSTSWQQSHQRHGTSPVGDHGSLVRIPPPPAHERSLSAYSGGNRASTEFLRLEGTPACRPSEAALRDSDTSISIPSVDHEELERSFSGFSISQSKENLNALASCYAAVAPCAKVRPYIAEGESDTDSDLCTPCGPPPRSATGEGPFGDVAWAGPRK
Sequence of Cytochrome P450 2C19 (P33261 whole entry, the tested form may be a part): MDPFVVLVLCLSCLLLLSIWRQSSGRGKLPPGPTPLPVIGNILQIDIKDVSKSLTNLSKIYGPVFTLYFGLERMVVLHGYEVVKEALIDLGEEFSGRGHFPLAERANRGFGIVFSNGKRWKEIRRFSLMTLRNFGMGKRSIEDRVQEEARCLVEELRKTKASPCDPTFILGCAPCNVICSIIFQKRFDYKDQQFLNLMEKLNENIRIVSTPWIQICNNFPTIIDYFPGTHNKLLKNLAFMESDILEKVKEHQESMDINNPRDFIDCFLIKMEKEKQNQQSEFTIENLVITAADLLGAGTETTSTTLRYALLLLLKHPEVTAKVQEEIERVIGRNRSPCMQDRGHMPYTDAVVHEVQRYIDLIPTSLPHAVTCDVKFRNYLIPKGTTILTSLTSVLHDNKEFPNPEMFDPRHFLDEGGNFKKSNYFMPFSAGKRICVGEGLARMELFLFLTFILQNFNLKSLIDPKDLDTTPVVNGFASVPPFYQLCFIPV

With `Cn1c(=O)[nH]c(=O)c2c1nc(NCc1ccco1)n2Cc1ccccc1Cl`, the IC50 in [1] was > 73.4 µM (inactive).
Regarding `O=C(O)c1ccc(NS(=O)(=O)c2ccc3c(c2)C(=O)c2ccccc2C3=O)cc1`, the IC50 in [2] was 91.2 µM (inactive).
Usually AC50 stands for the concentration giving half of the maximal activity seen. Regarding `O=C(NNC(=O)c1cc2cc3ccccc3nc2s1)c1cccc(Cl)c1`, the half-maximal activity concentration (AC50) on Cytochrome P450 2C19 is 5.01 µM (inconclusive); on Cytochrome P450 2C9, 1.41 µM (inconclusive). The IC50 is 1.9 µM (active) in [3], 10.7 µM (active) in assay [4], 8.67 µM (active) in assay [5] and 26.8 µM (inactive) in [6].
Turning to `COc1ccc(-c2cc3nc(-c4ccccc4)cc(N4CCN(C(=O)c5ccccc5)CC4)n3n2)cc1`, the values for the EC50 in assay [7] and in assay [8] were 720 nM (active) and 690 nM (active), respectively.
`O=C(CSc1nc2ccccc2c(=O)n1NC(=O)c1ccccc1)c1ccccc1`: in [9], the IC50 is 513 nM (active).
Turning to `CC(C)(C)NC(=O)CSc1nc2ccc(NC(=O)CSc3nnc(N)s3)cc2s1`, the IC50 is 3.87 µM (active) in assay [10]; 18.4 µM (active) in [11]; > 99 µM (inactive) in assay [12]; 1.54 µM (active) in assay [13]; 6.68 µM (active) in assay [14]; 17.1 µM (inactive) in [15].
`CCc1nc2ccc(C(=O)NCc3ccc4c(c3)OCO4)cn2c1N(CCC(C)C)CCN(C)C`: the IC50 was 11.5 µM (inactive) at Melanocortin receptor 4 and > 64.6 µM (inactive) in assay [16].
